According to US7507727B2, “Substituted quinobenzoxazine analogs and methods of using thereof” (Cylene Pharmaceuticals, Inc., priority 2003, dated 2009):

Key:
p53 (total) = p53 (total) ELISA in HCT-116 cells; type: cell-based; conditions: 24 hr, 1-5 uM
Description: The protocol for this assay is described as follows. On Day 1, cells were seeded at 2×10^6 cells/10 cm dish/10 mL medium. On day two, cells were treated as follows: control=0.05% DMSO (5 μl DMSO stock/10 ml medium); 1 μM CX3543 (1 μl Stock (10 mM)/10 ml medium); 2 μM CX3543 (2 μl Stock (10 mM)/10 ml medium); 3 μM CX3543 (3 μl Stock (10 mM)/10 ml medium); 4 μM CX3543 (4 μl Stock (10 mM)/10 ml medium) and 5 μM CX3543 (5 μl Stock (10 mM)/10 ml medium).
On Day 3, cells were harvested and attached and floating cells were collected. Cells were washed twice with PBS, counted and collected at 4×10^6 cells/sample. The cell pellet was frozen at −80° C. until further use. […]
Test Procedure. […] After washing, the plate is inverted and tapped dry on absorbance tissue. […]
Wash wells with 400 μl working wash buffer four times. […] After washing, the plate is inverted and tapped try on absorbance tissue. […] After washing, the plate is inverted and tapped try on absorbance tissue. […] Read the plate at A450 nm by setting chromogen blank (=100 μl TMB+100 μl Stop soln) as blank. Read absorbance within 2 hours of assay completion.

topoisomerase I = topoisomerase I (Homo sapiens, UniProt P11387); assay: Topoisomerase I inhibition; type: biochemical
HCT-116 cells = assay: DNA cell cycle analysis; type: cell-based; conditions: serum-starved HCT-116 cells, 24 hr, 1 to 5 um
Description: The following protocol was followed in this example. Seed 1.5-2.0×10^6 cells/10 cm dish (seed one extra dish for unstained cells). Incubate cells in 37° C. humidified 5% CO2 incubator for 24 hours. For synchronizing cells in a low growth state to make cells quiescent, remove media and rinse once with serum-free media, add 10 ml of serum-free media to each dish. Incubate the cells for 24 hr in a 37° C. humidified 5% CO2 incubator. Remove media and add treatment (diluted in serum contained media, 10 ml): 1-5 μM CX-3543 plus control. Incubate the cells for 24 hr in a 37° C. humidified 5% CO2 incubator.
To trypsinize/isolate cells, remove treatment. Add 3 ml trypsin/EDTA solution. Keep floating cells and combine with attached cells. Incubate for 5 min in a 37° C. humidified 5% CO2 incubator. Add 3 ml media (containing FBS) to wells and pipette into centrifuge tube. Centrifuge at 1000 rpm for 5 minutes. Decant supernatant and re-suspend pellet in 2-3 ml PBS. Count cells and wash cells once by putting 2×10^6 cells/tube, adding 2 ml PBS and centrifuging at 1000 rpm for 5 minutes. Re-suspend pelleted cells in 0.3 ml cold PBS.
To fix cells, gently add 0.7 ml ice cold 70% ethanol drop wise to tube containing 0.3 ml of cell suspension in PBS while vortexing. Leave on Ice for one hour (or up to a few days at 4C). Centrifuge at 1000 rpm for 5 minutes. Wash one time with cold PBS (1-2 ml). […]

Chain of topoisomerase I (P11387 whole entry): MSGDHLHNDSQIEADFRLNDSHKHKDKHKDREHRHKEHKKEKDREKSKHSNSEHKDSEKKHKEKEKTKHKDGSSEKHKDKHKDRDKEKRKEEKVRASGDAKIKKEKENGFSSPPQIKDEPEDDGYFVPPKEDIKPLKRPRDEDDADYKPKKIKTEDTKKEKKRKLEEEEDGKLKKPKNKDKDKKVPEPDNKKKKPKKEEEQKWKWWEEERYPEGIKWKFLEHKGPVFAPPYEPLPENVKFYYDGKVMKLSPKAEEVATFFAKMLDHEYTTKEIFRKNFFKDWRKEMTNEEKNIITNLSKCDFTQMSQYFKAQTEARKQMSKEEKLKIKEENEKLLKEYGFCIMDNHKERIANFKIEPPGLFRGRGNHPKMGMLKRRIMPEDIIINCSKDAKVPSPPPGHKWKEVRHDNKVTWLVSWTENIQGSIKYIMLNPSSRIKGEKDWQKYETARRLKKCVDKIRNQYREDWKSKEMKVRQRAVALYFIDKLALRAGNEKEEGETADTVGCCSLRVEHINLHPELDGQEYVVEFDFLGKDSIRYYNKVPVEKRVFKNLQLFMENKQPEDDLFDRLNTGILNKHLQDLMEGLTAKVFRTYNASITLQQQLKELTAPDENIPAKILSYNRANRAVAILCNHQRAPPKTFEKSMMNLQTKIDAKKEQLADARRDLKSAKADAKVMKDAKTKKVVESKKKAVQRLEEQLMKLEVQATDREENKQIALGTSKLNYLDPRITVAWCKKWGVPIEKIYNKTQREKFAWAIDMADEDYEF

CN1CCCC1CCNC(=O)c1cn2c3c(c(N4CCC(c5cnccn5)C4)c(F)cc3c1=O)Oc1cc3ccccc3cc1-2 (stereo not drawn) [CX-3543]
population of the protein p53 (total) (p53 (total)): enhanced
inhibitory activity against topoisomerase I (topoisomerase I): not to be an inhibitor or poison
effect on the distribution of cells throughout the cell cycle (HCT-116 cells): no observable effect
